Data reported in PubChem BioAssay (NCI).
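Step 1: Grow cells in 96-well plates. Step 2: Expose to compound for 48 hours at 5 concentrations. Step 3: Interpolate endpoints linearly; if unreached, use highest concentration. TGI is the concentration that stops growth completely.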

Assays:
Experiment in all cases: DTP human tumour cell line panel, 48 h
HS 578T breast = system: HS 578T breast
SK-MEL-2 melanoma = system: SK-MEL-2 melanoma
MCF7 breast = system: MCF7 breast
M14 melanoma = system: M14 melanoma
K-562 leukemia = system: K-562 leukemia
SF-295 CNS = system: SF-295 CNS
786-0 renal = system: 786-0 renal
RXF 393 renal = system: RXF 393 renal
SK-MEL-28 melanoma = system: SK-MEL-28 melanoma
KM12 colon = system: KM12 colon
OVCAR-5 ovarian = system: OVCAR-5 ovarian
RPMI-8226 leukemia = system: RPMI-8226 leukemia
MDA-MB-435 = system: MDA-MB-435
U251 CNS = system: U251 CNS
SK-MEL-5 melanoma = system: SK-MEL-5 melanoma
LOX IMVI melanoma = system: LOX IMVI melanoma
HT29 colon = system: HT29 colon
MDA-MB-231 breast = system: MDA-MB-231 breast
EKVX NSCLC = system: EKVX NSCLC
UACC-257 melanoma = system: UACC-257 melanoma
IGROV1 ovarian = system: IGROV1 ovarian
MOLT-4 leukemia = system: MOLT-4 leukemia
SNB-19 CNS = system: SNB-19 CNS
A549 NSCLC = system: A549 NSCLC
A498 renal = system: A498 renal
CCRF-CEM leukemia = system: CCRF-CEM leukemia
DU-145 prostate = system: DU-145 prostate
HOP-62 NSCLC = system: HOP-62 NSCLC
ACHN renal = system: ACHN renal
COLO 205 colon = system: COLO 205 colon
OVCAR-3 ovarian = system: OVCAR-3 ovarian
T-47D breast = system: T-47D breast
HCT-15 colon = system: HCT-15 colon
SK-OV-3 ovarian = system: SK-OV-3 ovarian
UACC-62 melanoma = system: UACC-62 melanoma
OVCAR-4 ovarian = system: OVCAR-4 ovarian
MDA-N = system: MDA-N
TK-10 renal = system: TK-10 renal
BT-549 breast = system: BT-549 breast
NCI-H226 lung = system: NCI-H226 lung
NCI-H522 lung = system: NCI-H522 lung
OVCAR-8 ovarian = system: OVCAR-8 ovarian
PC-3 prostate = system: PC-3 prostate
UO-31 renal = system: UO-31 renal
NCI/ADR-RES ovarian = system: NCI/ADR-RES ovarian
SN12C renal = system: SN12C renal
HCT-116 colon = system: HCT-116 colon
NCI-H23 lung = system: NCI-H23 lung
MALME-3M melanoma = system: MALME-3M melanoma
NCI-H460 lung = system: NCI-H460 lung
SW-620 colon = system: SW-620 colon
SR leukemia = system: SR leukemia
SF-268 CNS = system: SF-268 CNS
HL-60(TB) leukemia = system: HL-60(TB) leukemia
SNB-75 CNS = system: SNB-75 CNS
CAKI-1 renal = system: CAKI-1 renal
HCC-2998 colon = system: HCC-2998 colon
HOP-92 NSCLC = system: HOP-92 NSCLC
SF-539 CNS = system: SF-539 CNS

Measured: TGI

NC(=O)CNC(=O)[C@@H]1CC(OCCC(=O)O)CN1C(=O)C1CCCN1C(=O)OCc1ccccc1 (stereo partly drawn)
> 100 µM: HS 578T breast | SK-MEL-2 melanoma | MCF7 breast | M14 melanoma | K-562 leukemia | SF-295 CNS | 786-0 renal | RXF 393 renal | SK-MEL-28 melanoma | KM12 colon | OVCAR-5 ovarian | RPMI-8226 leukemia | MDA-MB-435 | U251 CNS | SK-MEL-5 melanoma | LOX IMVI melanoma | HT29 colon | MDA-MB-231 breast | EKVX NSCLC | UACC-257 melanoma | IGROV1 ovarian | MOLT-4 leukemia | SNB-19 CNS | A549 NSCLC | A498 renal | CCRF-CEM leukemia | DU-145 prostate | HOP-62 NSCLC | ACHN renal | COLO 205 colon | OVCAR-3 ovarian | T-47D breast | HCT-15 colon | SK-OV-3 ovarian | UACC-62 melanoma | OVCAR-4 ovarian | MDA-N | TK-10 renal | BT-549 breast | NCI-H226 lung | NCI-H522 lung | OVCAR-8 ovarian | PC-3 prostate | UO-31 renal | NCI/ADR-RES ovarian | SN12C renal | HCT-116 colon | NCI-H23 lung | MALME-3M melanoma | NCI-H460 lung | SW-620 colon | SR leukemia | SF-268 CNS | HL-60(TB) leukemia | SNB-75 CNS

O=C1c2cccc([N+](=O)[O-])c2C(=O)N1Cc1ccccc1
> 100 µM: HS 578T breast | SK-MEL-2 melanoma | MCF7 breast | M14 melanoma | CAKI-1 renal | HCC-2998 colon | K-562 leukemia | SF-295 CNS | 786-0 renal | RXF 393 renal | SK-MEL-28 melanoma | KM12 colon | OVCAR-5 ovarian | RPMI-8226 leukemia | HOP-92 NSCLC | MDA-MB-435 | U251 CNS | SK-MEL-5 melanoma | LOX IMVI melanoma | HT29 colon | MDA-MB-231 breast | EKVX NSCLC | UACC-257 melanoma | IGROV1 ovarian | MOLT-4 leukemia | SNB-19 CNS | A549 NSCLC | A498 renal | CCRF-CEM leukemia | DU-145 prostate | HOP-62 NSCLC | ACHN renal | COLO 205 colon | OVCAR-3 ovarian | T-47D breast | HCT-15 colon | SK-OV-3 ovarian | UACC-62 melanoma | OVCAR-4 ovarian | MDA-N | TK-10 renal | BT-549 breast | NCI-H226 lung | NCI-H522 lung | OVCAR-8 ovarian | PC-3 prostate | UO-31 renal | NCI/ADR-RES ovarian | SN12C renal | HCT-116 colon | NCI-H23 lung | NCI-H460 lung | SW-620 colon | SR leukemia | SF-268 CNS | SF-539 CNS | HL-60(TB) leukemia | SNB-75 CNS
